Assay results reported in patent US12018021B2 (UCB Biopharma SRL, priority 2018, dated 2024).

target: IgE-Tb / sFcεRIα-Y131A-AF488 (Homo sapiens, UniProt P01854, N146Q/N252Q); assay: IgE-Tb / sFcεRIα-Y131A-AF488 FRET assay (protocol for examples 234 to 501); type: binding; details: examples 234 to 501: compound with IgE-Tb 30 minutes before sFcεRIα-Y131A-AF488, incubated 18 hours at room temperature; read-out: Y131A FRET IC50 range
Experimental: For examples 234 to 501, the assay was conducted according to the following: Each assay reaction was conducted in a volume of 25 μl in a 384-well half-volume plate. 10 point compound serial dilutions (3-fold) were generated in DMSO at a concentration of ×50 that of the final assay concentration (FAC). Compound solutions were then prepared by diluting 10-fold in assay buffer. For the assay, 5l of diluted compound was added to 10 μl of IgE-Tb and incubated for 30 minutes before the addition of 10 μ[…]. FRET reagents FACs were 5 nM IgE-Tb, 25 nM […]. Usually the top FAC of compound in the assay was 10 μM. The final DMSO concentration was 2%. […] The maximum FRET signal (MAX) was measured in wells containing FRET reagents but no compound. The assay was incubated for 18 hours at room temperature, protected from light and evaporation, and with gentle agitation. Measurement of FRET for each well was carried out by exciting at 337 nm and measuring emission at 490/520 nm using a PHERAstar FSX plate reader (BMG Labtech). FRET ratio was calculated as follows: Emission at 520/7Emission at 490×1000. The FRET ratio was used for the data analysis. […] Z' above 0.5 was considered a good assay. Background signal (MIN) was subtracted from all wells. […] Percent inhibition was plotted against compound concentration. IC50 values for each compound were determined using four parameter logistic fit model using the XLFIT5 software package.

IgE-Tb / sFcεRIα-Y131A-AF488, sequence (P01854 whole entry N146Q/N252Q): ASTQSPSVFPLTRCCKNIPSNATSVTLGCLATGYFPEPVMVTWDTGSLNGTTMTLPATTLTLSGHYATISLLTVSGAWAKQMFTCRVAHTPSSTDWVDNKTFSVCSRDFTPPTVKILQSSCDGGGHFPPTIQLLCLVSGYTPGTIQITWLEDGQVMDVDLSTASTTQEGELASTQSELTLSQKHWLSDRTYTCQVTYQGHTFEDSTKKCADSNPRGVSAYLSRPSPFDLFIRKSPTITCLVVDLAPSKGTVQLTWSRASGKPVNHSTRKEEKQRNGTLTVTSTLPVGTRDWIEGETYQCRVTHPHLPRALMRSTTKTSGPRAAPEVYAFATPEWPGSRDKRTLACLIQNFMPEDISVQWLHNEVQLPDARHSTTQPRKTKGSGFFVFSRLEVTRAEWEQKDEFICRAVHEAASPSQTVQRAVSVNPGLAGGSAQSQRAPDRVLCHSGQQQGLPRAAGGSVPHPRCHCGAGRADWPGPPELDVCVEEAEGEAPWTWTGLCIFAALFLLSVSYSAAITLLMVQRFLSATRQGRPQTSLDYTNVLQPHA

Row | Compound | IC50 [nM]
1 | Cn1nc(C(F)F)cc1Nc1nncn1[C@H]1CCc2sc(NC(=O)[C@H]3C[C@H](F)C3)c(C(=O)NC[C@H]3CC3(F)F)c2C1 (relative stereo) [Example 472, (5S)—N-[[(1R*)-2,2-difluorocyclopropyl]methyl]-5-[3-[[5-(difluoromethyl)-2-methyl-pyrazol-3-yl]amino]-1,2,4-triazol-4-yl]-2-[trans-(3-fluorocyclobutanecarbonyl)amino]-4,5,6,7-tetrahydrobenzothiophene-3-carboxamide [* or S]] | < 1000
2 | Cn1nc(C(F)F)cc1Nc1nncn1[C@H]1CCc2sc(NC(=O)[C@H]3CC3(F)F)c(C(=O)NC[C@H]3C[C@H]3F)c2C1 (relative stereo) [Example 498, (5S)-2-[[(1R*)-2,2-difluorocyclopropanecarbonyl]amino]-5-[3-[[5-(difluoromethyl)-2-methyl-pyrazol-3-yl]amino]-1,2,4-triazol-4-yl]-N-[[(1R,2R)-2-fluorocyclopropyl]methyl]-4,5,6,7-tetrahydrobenzothiophene-3-carboxamide (* or S)] | < 1000
3 | Cc1cc(Nc2nncn2[C@H]2CCc3sc(NC(=O)[C@H]4CC45CC5)c(C(=O)NCC4CC4)c3C2)n(C)n1 (relative stereo) [Example 500, (5S)—N-(cyclopropylmethyl)-5-[3-[(2,5-dimethylpyrazol-3-yl)amino]-1,2,4-triazol-4-yl]-2-[[(2S*)-spiro[2.2]pentane-2-carbonyl]amino]-4,5,6,7-tetrahydrobenzothiophene-3-carboxamide (* or R)] | < 1000
4 | O=C(NCC1CC1)c1c(NC(=O)C2CC2)sc2c1C[C@@H](n1cnnc1NC1CCS(=O)(=O)C1)CC2 (single isomer, unassigned) [Example 234, (5S)-2-(cyclopropanecarbonylamino)-N-(cyclopropylmethyl)-5-[3-[[(3S*)-1,1-dioxothiolan-3-yl]amino]-1,2,4-triazol-4-yl]-4,5,6,7-tetrahydrobenzothiophene-3-carboxamide] | < 1000
5 | Cc1c(Nc2nncn2[C@H]2CCc3sc(NC(=O)C4CC4)c(C(=O)NCC4CC4)c3C2)cccc1[S@@](C)(=N)=O (single isomer, unassigned) [Example 236] | < 1000
6 | Cc1c(Nc2nncn2[C@H]2CCc3sc(NC(=O)C4CC4)c(C(=O)NCC4CC4)c3C2)cccc1[S@](C)(=N)=O (single isomer, unassigned) [Example 237] | < 1000
7 | CC(=O)N1CC[C@](C)(Nc2nncn2[C@H]2CCc3sc(NC(=O)C4CC4)c(C(=O)NCC4CC4)c3C2)C1 (single isomer, unassigned) [Example 239, (5S)-5-[3-[[(3*)-1-acetyl-3-methyl-pyrrolidin-3-yl]amino]-1,2,4-triazol-4-yl]-2-(cyclopropanecarbonylamino)-N-(cyclopropylmethyl)-4,5,6,7-tetrahydrobenzothiophene-3-carboxamide] | < 1000
8 | CC1CN(S(C)(=O)=O)CC1Nc1nncn1[C@H]1CCc2sc(NC(=O)C3CC3)c(C(=O)NCC3CC3)c2C1 (single isomer, unassigned) [Example 242] | < 1000
9 | C[S@](=N)(=O)c1cccc(Nc2nncn2[C@H]2CCc3sc(NC(=O)C4CC4)c(C(=O)NCC4CC4)c3C2)c1 (single isomer, unassigned) [Example 253] | < 1000
10 | C[S@@](=N)(=O)c1cccc(Nc2nncn2[C@H]2CCc3sc(NC(=O)C4CC4)c(C(=O)NCC4CC4)c3C2)c1 (single isomer, unassigned) [Example 254] | < 1000
11 | CS(=O)(=O)c1cccc(Nc2nncn2[C@H]2CCc3sc(NC(=O)C4CC45CC5)c(C(=O)NCC4CC4)c3C2)n1 (single isomer, unassigned) [Example 256, (5S)—N-(cyclopropylmethyl)-5-[3-[(6-methylsulfonyl-2-pyridyl)amino]-1,2,4-triazol-4-yl]-2-[[(2S*)-spiro[2.2]pentane-2-carbonyl]amino]-4,5,6,7-tetrahydrobenzothiophene-3-carboxamide] | < 1000
12 | CC1CCCCC1Nc1nncn1[C@H]1CCc2sc(NC(=O)C3CC3)c(C(=O)NCC3CC3)c2C1 (single isomer, unassigned) [Example 269] | < 1000
13 | O=C1CC(Nc2nncn2[C@H]2CCc3sc(NC(=O)C4CC4)c(C(=O)NCC4CC4)c3C2)CN1 (single isomer, unassigned) [Example 271, (5S)-2-(cyclopropanecarbonylamino)-N-(cyclopropylmethyl)-5-[3-[[(3R*)-5-oxopyrrolidin-3-yl]amino]-1,2,4-triazol-4-yl]-4,5,6,7-tetrahydrobenzothiophene-3-carboxamide] | < 1000
14 | CC1C(Nc2nncn2[C@H]2CCc3sc(NC(=O)C4CC4)c(C(=O)NCC4CC4)c3C2)CCN1S(C)(=O)=O (single isomer, unassigned) [Example 274] | < 1000
15 | Cc1ccc(C2CC(Nc3nncn3[C@H]3CCc4sc(NC(=O)C5CC5)c(C(=O)NCC5CC5)c4C3)C2)cn1 (single isomer, unassigned) [Example 276] | < 1000
16 | Cn1nc(C(F)F)cc1Nc1nncn1[C@H]1CCc2sc(NC(=O)C3CC3(F)F)c(C(=O)NC[C@H]3C[C@H](F)C3)c2C1 (single isomer, unassigned) [Example 278, (5S)-2-[[(1R*)-2,2-difluorocyclopropanecarbonyl]amino]-5-[3-[[5-(difluoromethyl)-2-methyl-pyrazol-3-yl]amino]-1,2,4-triazol-4-yl]-N-[trans-(3-fluorocyclobutyl)methyl]-4,5,6,7-tetrahydrobenzothiophene-3-carboxamide] | < 1000
17 | Cn1nc(OC(F)F)cc1Nc1nncn1[C@H]1CCc2sc(NC(=O)C3CC3(F)F)c(C(=O)N[C@H]3C[C@H](F)C3)c2C1 (single isomer, unassigned) [Example 279, (5S)-2-[[(1R*)-2,2-difluorocyclopropanecarbonyl]amino]-5-[3-[[5-(difluoromethoxy)-2-methyl-pyrazol-3-yl]amino]-1,2,4-triazol-4-yl]-N-(trans-3-fluorocyclobutyl)-4,5,6,7-tetrahydrobenzothiophene-3-carboxamide] | < 1000
18 | Cn1nc(OC(F)F)cc1Nc1nncn1[C@H]1CCc2sc(NC(=O)C3CC3(F)F)c(C(=O)NC[C@H]3C[C@H](F)C3)c2C1 (single isomer, unassigned) [Example 280, (5S)-2-[[(1R*)-2,2-difluorocyclopropanecarbonyl]amino]-5-[3-[[5-(difluoromethoxy)-2-methyl-pyrazol-3-yl]amino]-1,2,4-triazol-4-yl]-N-[trans-(3-fluorocyclobutyl)methyl]-4,5,6,7-tetrahydrobenzothiophene-3-carboxamide] | < 1000
19 | Cn1nc(OC(F)F)cc1Nc1nncn1[C@H]1CCc2sc(NC(=O)C3CC3(F)F)c(C(=O)NC[C@@H]3C[C@@H]3F)c2C1 (single isomer, unassigned) [Example 281, (5S)-2-[[(1S*)-2,2-difluorocyclopropanecarbonyl]amino]-5-[3-[[5-(difluoromethoxy)-2-methyl-pyrazol-3-yl]amino]-1,2,4-triazol-4-yl]-N-[[(1S,2S)-2-fluorocyclopropyl]methyl]-4,5,6,7-tetrahydrobenzothiophene-3-carboxamide] | < 1000
20 | Cn1nc(C(F)F)cc1Nc1nncn1[C@H]1CCc2sc(NC(=O)C3CC3(F)F)c(C(=O)NCC3CC3(F)F)c2C1 (single isomer, unassigned) [Example 282] | < 1000
21 | Cn1nc(C(F)F)cc1Nc1nncn1[C@H]1CCc2sc(NC(=O)C3CC3(F)F)c(C(=O)NCC3CC3(F)F)c2C1 (single isomer, unassigned) [Example 283] | < 1000
22 | O=C(NCC1CC1)c1c(NC(=O)C2CC2)sc2c1C[C@@H](n1cnnc1NC1CCC3(CCN(c4ncccn4)C3)C1)CC2 (single isomer, unassigned) [Example 289] | < 1000
23 | Cn1nc(OC(F)F)cc1Nc1nncn1[C@H]1CCc2sc(NC(=O)[C@H]3C[C@H]3F)c(C(=O)NCC3CC3)c2C1 (single isomer, unassigned) [Example 349] | < 1000
24 | Cn1nc(OC(F)F)cc1Nc1nncn1[C@H]1CCc2sc(NC(=O)[C@@H]3C[C@@H]3F)c(C(=O)NCC3CC3)c2C1 (single isomer, unassigned) [Example 350] | < 1000
25 | Cn1nc(C(F)F)cc1Nc1nncn1[C@H]1CCc2sc(NC(=O)[C@@H]3C[C@@H]3F)c(C(=O)NCC3CC3)c2C1 (single isomer, unassigned) [Example 362] | < 1000
26 | Cn1nc(C(F)F)cc1Nc1nncn1[C@H]1CCc2sc(NC(=O)[C@H]3C[C@H]3F)c(C(=O)NCC3CC3)c2C1 (single isomer, unassigned) [Example 363] | < 1000
27 | Cn1nc(C(F)F)cc1Nc1nncn1[C@H]1CCc2sc(NC(=O)[C@@H]3C[C@H]3F)c(C(=O)NCC3CC3)c2C1 (single isomer, unassigned) [Example 367] | < 1000
28 | Cn1nc(OC(F)F)cc1Nc1nncn1[C@H]1CCc2sc(NC(=O)[C@H]3C[C@@H]3F)c(C(=O)NC[C@H]3CC3(F)F)c2C1 (single isomer, unassigned) [Example 374] | < 1000
29 | Cn1nc(OC(F)F)cc1Nc1nncn1[C@H]1CCc2sc(NC(=O)[C@H]3C[C@@H]3F)c(C(=O)NC[C@@H]3CC3(F)F)c2C1 (single isomer, unassigned) [Example 375] | < 1000
